Measurements published in patent publication US9617244B2, “Antibacterial quinoline derivatives” (JANSSEN PHARMACEUTICA NV, priority 2012, dated 2017).
Converted amounts (≈) assume the structure as drawn.

What was measured:
[1] = test system: Staphylococcus aureus (ATCC29213); test: In-vitro anti-bacterial activity, microtitre plate assay, IC90 determination (non-mycobacterial strains); assay type: cell-based; settings: 90% inhibitory concentration for bacterial growth, resazurin fluorescence; for IC90 STA B29213: 24 hours; for IC90: Staphylococcus aureus, ATCC29213, 24 h, read-out: IC90 STA B29213
Protocol: D.2. In-Vitro Method for Testing Compounds for Anti-Bacterial Activity Against Various Non-Mycobacterial Strains
Preparation of Bacterial Suspensions for Susceptibility Testing:
The bacteria used in this study were grown overnight in flasks containing 100 ml Mueller-Hinton Broth (Becton Dickinson—cat. no. 275730) in sterile de-ionized water, with shaking, at 37° C. Stocks (0.5 ml/tube) were stored at −70° C. until use. Bacteria titrations were performed in microtiter plates to detect the TCID50, in which TCID50 represents the dilution that gives rise to bacterial growth in 50% of inoculated cultures. In general, an inoculum level of approximately 100 TCID50 was used for susceptibility testing.
Anti Bacterial Susceptibility Testing: IC90 Determination
Flat-bottom, sterile 96-well plastic microtiter plates were filled with 180 μl of sterile deionized water, supplemented with 0.25% BSA. Subsequently, stock solutions (7.8× final test concentration) of compounds were added in 45 μl volumes in column 2 Serial five-fold dilutions (45 μl in 180 μl) were made directly in the microtiter plates from column 2 to reach column 11. Untreated control samples with (column 1) and without (column 12) inoculum were included in each microtiter plate. Depending on the bacteria type, approximately 10 to 60 CFU per well of bacteria inoculum (100 TCID50), in a volume of 100 μl in 2.8× Mueller-Hinton broth medium, was added to the rows A to H, except column 12. The same volume of broth medium without inoculum was added to column 12 in row A to H. The cultures were incubated at 37° C. for 24 hours under a normal atmosphere (incubator with open air valve and continuous ventilation). At the end of incubation, one day after inoculation, the bacterial growth was quantitated fluorometrically. Therefore resazurin (0.6 mg/ml) was added in a volume of 20 μl to all wells 3 hours after inoculation, and the plates were re-incubated overnight. A change in colour from blue to pink indicated the growth of bacteria. The fluorescence was read in a computer-controlled fluorometer (Cytofluor Biosearch) at an excitation wavelength of 530 nm and an emission wavelength of 590 nm. The % growth inhibition achieved by the compounds was calculated according to standard methods. The IC90 (expressed in μg/ml) was defined as the 90% inhibitory concentration for bacterial growth.

[2] = test system: Mycobacterium smegmatis (ATCC607); test: In-vitro anti-bacterial activity against strain M. Smegmatis ATCC607; assay type: cell-based; settings: 90% inhibitory concentration for bacterial growth, Alamar Blue fluorescence; for IC90 MSM 607: 48 hours; for IC90: Mycolicibacterium smegmatis, ATCC607, 48 h, read-out: IC90 MSM 607
Protocol: D.1. In-Vitro Method for Testing Compounds for Anti-Bacterial Activity Against Strain M. Smegmatis ATCC607
Flat-bottom, sterile 96-well plastic microtiter plates were filled with 180 μl of sterile deionized water, supplemented with 0.25% BSA. Subsequently, stock solutions (7.8× final test concentration) of compounds were added in 45 μl volumes to a series of duplicate wells in column 2 so as to allow evaluation of their effects on bacterial growth. Serial five-fold dilutions (45 μl in 180 μl) were made directly in the microtiter plates from column 2 to 11 using a customised robot system (Zymark Corp., Hopkinton, Mass.). Pipette tips were changed after every 3 dilutions to minimize pipetting errors with high hydrophobic compounds. Untreated control samples with (column 1) and without (column 12) inoculum were included in each microtiter plate. Approximately 250 CFU per well of bacteria inoculum, in a volume of 100 μl in 2.8× Mueller-Hinton broth medium, was added to the rows A to H, except column 12. The same volume of broth medium without inoculum was added to column 12 in row A to H. The cultures were incubated at 37° C. for 48 hours in a humidified 5% CO2 atmosphere (incubator with open air valve and continuous ventilation). At the end of incubation, two days after inoculation, the bacterial growth was quantitated fluorometrically. Therefore Alamar Blue (10×) was added to all wells in a volume of 20 μl and plates were incubated for another 2 hours at […]
The fluorescence was read in a computer-controlled fluorometer (Cytofluor, Biosearch) at an excitation wavelength of 530 nm and an emission wavelength of 590 nm (gain 30). The percentage growth inhibition achieved by the compounds was calculated according to standard methods and expressed as IC90 (μg/ml) which defines the 90% inhibitory concentration for bacterial growth.

Compound | IC90 STA B29213 [1] [µg/mL] | IC90 MSM 607 [2] [µg/mL] | IC90 [1] [µg/mL] | IC90 [2] [µg/mL]
COc1nc2ccc(Cl)cc2cc1C(c1ccc(Cl)cc1)C1(O)CCNC(c2ccc(F)cc2C)C1 (single isomer, unassigned) [Compound 4] | 2.63 (≈ 5.01 µM) | 2.09 (≈ 3.98 µM) |  | 
COc1nc2ccc(Br)cc2cc1C(n1cccn1)[C@@]1(O)CCN[C@H](Cc2ccccc2)C1 (stereo in doubt) [Compound 67] |  |  | 14.9 (≈ 29.4 µM) | 7.47 (≈ 14.7 µM)
CS(=O)(=O)c1ccc2[nH]c(=O)c(C(c3ccc(Cl)cc3)C3(O)CCN[C@@H](Cc4ccc(F)c(F)c4)C3)cc2c1 (stereo in doubt) [Compound 206] | >15.08 | >15.08 |  | 
CS(=O)(=O)c1ccc2[nH]c(=O)c(C(c3ccc(Cl)cc3)C3(O)CCN[C@@H](Cc4ccc(F)c(F)c4)C3)cc2c1 (stereo in doubt) [Compound 207] | 3.83 (≈ 6.68 µM) | 3.83 (≈ 6.68 µM) |  | 
O=c1[nH]c2ccc(Cl)cc2cc1C(c1ccc(Cl)cc1)C1(O)CCNC(Cc2ccccc2)C1 (stereo not drawn) [Compound 5] | 1.67 (≈ 3.38 µM) | 1.67 (≈ 3.38 µM) |  | 
O=c1[nH]c2ccc(Br)cc2cc1C(c1ccc(Cl)cc1)C1(O)CCNC(CC2CCCCC2)C1 (stereo not drawn) [Compound 6] | 1.83 (≈ 3.36 µM) | 9.18 (≈ 16.9 µM) |  | 
Cc1cc(F)ccc1C1CC(O)(C(c2ccc(Cl)cc2)c2cc3cc(Br)ccc3[nH]c2=O)CCN1 (stereo not drawn) [Compound 7] | 1.49 (≈ 2.68 µM) | 0.94 (≈ 1.69 µM) |  | 
COc1nc2ccccc2cc1C(c1ccc(Cl)cc1)C1(O)CCNC(CO)C1 (stereo not drawn) [Compound 10] |  |  | > 10.4 | > 10.4
COc1nc2ccccc2cc1C(c1ccccc1)C1(O)CCNC(c2ccc(F)cc2C)C1 (stereo not drawn) [Compound 16] |  |  | 7.21 (≈ 15.8 µM) | 9.08 (≈ 19.9 µM)
COc1nc2ccccc2cc1C(c1ccc(Cl)cc1)C1(O)CCNC(Cc2ccccc2)C1 (stereo not drawn) [Compound 19] |  |  | 5.95 (≈ 12.6 µM) | 3.76 (≈ 7.95 µM)
COc1nc2ccc(Br)cc2cc1C(c1ccc(Cl)cc1)C1(O)CCN(Cc2ccccc2)CC1C (stereo not drawn) [Compound 26] | >44.79 |  |  | 
COc1nc2ccccc2cc1C(c1ccc(Cl)cc1)C1(O)CCNC(c2cccnc2)C1 (stereo not drawn) [Compound 27] |  |  | 11.6 (≈ 25.1 µM) | 7.29 (≈ 15.8 µM)
COc1nc2ccc(Cl)cc2cc1C(c1ccc(Cl)cc1)C1(O)CCNC(c2cccnc2)C1 (stereo not drawn) [Compound 28] | 6.22 (≈ 12.6 µM) | 3.12 (≈ 6.31 µM) |  | 
COc1nc2ccc(Br)cc2cc1C(c1ccc(Cl)cc1)C1(O)CCNC(Cc2ccccc2)C1 (stereo not drawn) [Compound 32] | 3.48 (≈ 6.31 µM) | 1.56 (≈ 2.83 µM) |  | 
Cc1cc(F)ccc1C1CC(O)(C(c2cccc(Cl)c2)c2cc3cc(S(C)(=O)=O)ccc3[nH]c2=O)CCN1 (stereo not drawn) [Compound 42] | 7.34 (≈ 13.2 µM) | 2.60 (≈ 4.68 µM) |  | 
Cc1cc(F)ccc1C1CC(O)(C(c2ccccc2)c2cc3cc(Br)ccc3[nH]c2=O)CCN1 (stereo not drawn) [Compound 43] | 3.48 (≈ 6.67 µM) | 3.48 (≈ 6.67 µM) |  | 
COc1nc2ccc(Br)cc2cc1C(c1ccc(Cl)cc1)C1(O)CCNCC1Cc1cccc(F)c1 (stereo not drawn) [Compound 48] | 0.90 (≈ 1.58 µM) | 0.72 (≈ 1.26 µM) |  | 
O=c1[nH]c2ccc(Br)cc2cc1C(c1ccc(Cl)cc1)C1(O)CCNCC1Cc1cccc(F)c1 (stereo not drawn) [Compound 49] |  | 1.79 (≈ 3.22 µM) | 2.25 (≈ 4.05 µM) | 
COc1nc2ccc(SC)cc2cc1C(c1cccc(Cl)c1)C1(O)CCNC(Cc2ccc(F)cc2F)C1 (stereo not drawn) [Compound 50] |  |  | 1.15 (≈ 2.07 µM) | 1.15 (≈ 2.07 µM)
COc1nc2ccc(F)cc2cc1C(c1ccc(Cl)cc1)C1(O)CCNC(Cc2ccccc2)C1 (stereo not drawn) [Compound 54] | 3.54 (≈ 7.21 µM) | 1.77 (≈ 3.6 µM) |  | 
COc1nc2ccc(Br)cc2cc1C(c1ccccc1)C1(O)CCNC(Cc2ccccc2)C1 (stereo not drawn) [Compound 72] |  |  | 4.11 (≈ 7.94 µM) | 
COc1nc2ccc(F)cc2cc1C(c1ccc(Cl)cc1)C1(O)CCN(C(C)c2ccccc2)C(CO)C1 (stereo not drawn) [Compound 437] | 13.44 (≈ 25.1 µM) |  |  | 
COc1nc2ccc(Cl)cc2cc1C(c1ccc(Cl)cc1)C1(O)CCNC(c2ccc3ccccc3c2)C1 (stereo not drawn) [Compound 440] | 8.61 (≈ 15.8 µM) |  |  | 
COc1nc2ccc(Cl)cc2cc1C(c1ccc(Cl)cc1)C1(O)CCNC(c2ccc3ccccc3c2)C1 (stereo not drawn) [Compound 441] | 12.17 (≈ 22.4 µM) |  |  | 

Further lines, results first:

IC90 STA B29213 [1] [µg/mL] | IC90 MSM 607 [2] [µg/mL] | IC90 [1] [µg/mL] | IC90 [2] [µg/mL] | Compound
3.32 (≈ 6.32 µM) | 1.66 (≈ 3.16 µM) |  |  | COc1nc2ccc(Cl)cc2cc1C(c1ccc(Cl)cc1)C1(O)CCNC(c2ccc(F)cc2C)C1 (single isomer, unassigned) [Compound 1]
>15.22 | >15.22 |  |  | CS(=O)(=O)c1ccc2[nH]c(=O)c(C(c3ccc(Cl)cc3)C3(O)CCN[C@@H](Cc4ccc(F)c(F)c4)C3)cc2c1 (stereo in doubt) [Compound 205]
7.60 (≈ 13.3 µM) | 9.57 (≈ 16.7 µM) |  |  | CS(=O)(=O)c1ccc2[nH]c(=O)c(C(c3ccc(Cl)cc3)C3(O)CCN[C@@H](Cc4ccc(F)c(F)c4)C3)cc2c1 (stereo in doubt) [Compound 208]
6.74 (≈ 12.6 µM) | 3.79 (≈ 7.08 µM) |  |  | COc1nc2ccc(F)cc2cc1C(c1ccc(Cl)cc1)C1(O)CCN(C(C)c2ccccc2)C(CO)C1 (stereo not drawn) [Compound 14]
 |  | 20 (≈ 35.3 µM) | 10 (≈ 17.7 µM) | COc1nc2ccc(Br)cc2cc1C(c1ccc(Cl)cc1)C1(O)CCN(C)C(Cc2ccccc2)C1 (stereo not drawn) [Compound 18]
 |  | > 15 | > 15 | COc1nc2ccc(Cl)cc2cc1C(c1ccc(Cl)cc1)C1(O)CCN(C(C)c2ccccc2)C(c2cccnc2)C1 (stereo not drawn) [Compound 22]
>19.87 |  |  | > 19.9 | COc1nc2ccc(Br)cc2cc1C(c1ccc(Cl)cc1)C1(O)CCN(Cc2ccccc2)CC1C (stereo not drawn) [Compound 25]
2.34 (≈ 3.98 µM) | 1.17 (≈ 1.99 µM) |  |  | COc1nc2ccc(Br)cc2cc1C(c1ccc(Cl)cc1)C1(O)CCNC(Cc2ccc(F)cc2F)C1 (stereo not drawn) [Compound 51]
6.19 (≈ 12.6 µM) | 3.90 (≈ 7.94 µM) |  |  | COc1nc2ccc(F)cc2cc1C(c1ccc(Cl)cc1)C1(O)CCNC(Cc2ccccc2)C1 (stereo not drawn) [Compound 55]
 |  | 4.37 (≈ 7.94 µM) |  | COc1nc2ccc(-c3cccnc3)cc2cc1C(c1ccc(Cl)cc1)C1(O)CCNC(Cc2ccccc2)C1 (stereo not drawn) [Compound 80]
 | 9.21 (≈ 19.9 µM) |  |  | CC1CC(O)(C(c2ccc(Cl)cc2)c2cc3cc(Br)ccc3[nH]c2=O)CCN1 (stereo not drawn) [Compound 132]
